{"source": "patent US20120277171A1", "about": "“Warmi®, natural alternative for the treatment of menopause” (priority 2011, published 2012)", "key": {"[1]": {"assay": "Clinical trial: anthropometric parameters and vital signs", "assay_type": "in vivo, human", "settings": "mean ± SD", "protocol": "(§1) Prospective, longitudinal, double blind, three stage, comparative clinical and laboratory evaluation trials on symptomatic postmenopausal women who attended the menopause medical units of the Hospital Nacional Cayetano Heredia, Hospital Nacional Arzobispo Loayza, Hospital Docente Madre Niño San Bartolomé and the medical unit of the Universidad Nacional Agraria La Molina.\n(§2) Warmi® capsules (510 mg) were manufactured by Laboratorios Hersil S.A. Capsules were manufactured following Good Manufacturing Practices (GMP) and following the Hazard Analysis and Critical Control Points (HACCP). Warmi® is a natural proprietary blend composed of β-sitosterol, glucosinolates and citrus flavonoids (hesperidin). […] Patients received 3 capsules a day to be taken every 6 hours.\nTibolone was used as HRT. Tibolone was masked in a capsule with the same appearance as the previous groups. Patients received 3 capsules a day to be taken every 6 hours. Tibolone is the latest treatment for menopausal symptoms in Peru. Tibolone is a synthetic steroid with estrogenic, progestogenic and androgenic activity, used for the treatment of menopausal symptoms and post-menopausal osteoporosis. It has been observed that Tibolone reduces the level of triglycerides, HDL, total cholesterol and with no effect on the LDL.\nThe sample group was integrated by symptomatic postmenopausal women who attend the menopause centers of the participating hospitals. 135 participants were accepted in the study and each hospital recruited the patients that were randomly assigned to the three treatment groups: Warmi®, Tibolone and placebo.\nThe statistical analysis was done using a SPSS statistical package (version 11.0). […] The variables were analyzed as a change in relation to the basal level and compared by treatment groups."}, "human osteocalcin": {"test_system": "human osteocalcin", "assay": "Clinical trial: plasma osteocalcin (EASIA)", "assay_type": "in vivo", "settings": "after 6 months of treatment; FIG. 13", "protocol": "Plasma osteocalcin was measured through the EASIA technique (Enzyme Amplified Sensitivity Immunoassay) using monoclonal antibodies against different epitopes of human osteocalcin (Biosource International, Inc., USA), with a sensitivity of 0.4 ng/mL. Human osteocalcin was measured at the beginning of the treatment and after 6 months of treatment, according to the manufacturer's instructions.\n(§3) The levels of cytokines, osteocalcin, growth hormone and C-reactive protein were measured in the Laboratory of the Molecular Biotechnology Unit of the Research and Development Laboratories of the Universidad Peruana Cayetano Heredia (UPCH). All laboratory procedures were conducted in duplicate, standards were used to ensure the reproducibility and quality of the results."}, "[2]": {"test_system": "symptomatic postmenopausal women", "assay": "Greene Climateric Scale", "assay_type": "in vivo, human", "settings": "FIGS. 31-35", "description": "The changes are observed in sub-categories of Anxiety, Depression, Vasomotor Symptoms and Sexual Aspects."}, "[3]": {"test_system": "triglycerides (TG), total cholesterol (TC), HDL, LDL and serum glucose levels", "assay": "Clinical trial: lipids and glucose count", "assay_type": "in vivo, human", "protocol": "The triglycerides (TG), total cholesterol (TC), HDL, LDL and serum glucose levels (Valtek S.A.) were measured based on a peripheral blood test prior to the start of the treatment, at months 1, 3 and 6 following treatment. TG, TC and HDL levels were measured with a MicroLab semiautomatic analyzer, through an enzymatic colorimetric technique, using the manufacturer's manual and procedures. Normal values shall be TC<200 mg/dL, HDL>35 mg/dL, LDL<130 mg/dL and TG<170 mg/dL."}, "[4]": {"test_system": "TNF-α, INF-y and IL-6 cytokines", "assay": "Clinical trial: cytokine count", "assay_type": "in vivo, human", "protocol": "Peripheral blood samples were obtained in vacutainer test tubes with anticoagulant (Becton Dickenson, BD). The biological sample was previously centrifuged and stored at a −70° C. for the respective cytokine count. Type Th1: TNF-α, INF-y and Th2: IL-6 cytokines were counted. The manufacturer's instructions were followed and the cytokine concentrations were calculated according to the specifications (Pharmingen, BD). Cytokines were measured prior to and upon conclusion of the treatment.\nas §3"}, "[5]": {"test_system": "FSH, LH, estradiol, progesterone and DHEAS", "assay": "Clinical trial: hormone count in serum (immunochemical luminescence)", "assay_type": "in vivo, human", "settings": "for reduction of FSH: FIG. 2", "protocol": "Laboratory tests were requested prior to the beginning of the treatments (basal levels) and after 3 and 6 months. The levels of the following hormones were measured in the Laboratory of the Molecular Biotechnology Unit of the Research and Development Laboratories of the Universidad Peruana Cayetano Heredia: FSH, LH, estradiol, progesterone and DHEAS. The following normal menopausal values shall be considered: FSH of between 25.0 and 134.8 mlU/mL, LH of between 7.7 and 58.5 mlU/mL, estradiol between <10.0 and 39.5 pg/mL and progesterone between 0.20 and 1.00 ng/mL.\nIn order to determine the hormonal levels, a peripheral blood test was taken from each patient on an empty stomach and the serum FSH, LH, estradiol, progesterone and DHEAS levels were taken using the immunochemical luminescence method, following the standardized procedures of the laboratory."}, "[6]": {"settings": "human, in vivo", "protocol": "as §1, §2\nTibolone was used as HRT. Tibolone was masked in a capsule with the same appearance as the previous groups. Patients received 3 capsules a day to be taken every 6 hours. […]\nThe statistical analysis was done using a SPSS statistical package (version 11.0). The results were expressed as a mean±standard error (SE), and a p<0.05 was considered significant. The variables were analyzed as a change in relation to the basal level and compared by treatment groups.\nThere was a small decrease in the hematocrit (1.43%) of the placebo group. […] Upon observing the other quantifiable parameters, no significant changes are noticed."}, "C-reactive protein": {"test_system": "C-reactive protein", "assay": "Clinical trial: C-reactive protein (ELISA)", "assay_type": "in vivo, human", "settings": "after 6 months of treatment", "protocol": "C-reactive protein from human plasma (Diagnostic Automation Inc., USA) was tested with a very sensitive ELISA using a monoclonal antibody against a different antigenic determinant on the C-Reactive Protein molecule, with a sensitivity of […]. C-reactive protein (CRP) was measured prior to treatment and after 6 months of treatment, according to the manufacturer's instructions.\nas §3"}}, "data": [{"compound": "C#C[C@]1(O)CC[C@H]2[C@@H]3[C@H](C)CC4=C(CCC(=O)C4)[C@H]3CC[C@@]21C", "note": "[Tibolone]", "values": [{"measurement": "Diastolic BP", "setting": "[1]; 3rd Month", "value": "72.5 ± 10.83"}, {"measurement": "Heart Rate", "setting": "[1]; 3rd Month", "value": "63.66 ± 1.96"}, {"measurement": "Pulse Pressure", "setting": "[1]; 3rd Month", "value": "64 ± 1.78"}, {"measurement": "Respiratory Rate", "setting": "[1]; 3rd Month", "value": "16.33 ± 0.98"}, {"measurement": "Systolic BP", "setting": "[1]; 3rd Month", "value": "113.33 ± 8.16"}, {"measurement": "Diastolic BP", "setting": "[1]; 6th Month", "value": "73.16 ± 11.4"}, {"measurement": "Heart Rate", "setting": "[1]; 6th Month", "value": "62.67 ± 2.42"}, {"measurement": "Pulse Pressure", "setting": "[1]; 6th Month", "value": "62.67 ± 2.42"}, {"measurement": "Systolic BP", "setting": "[1]; 6th Month", "value": "110 ± 8.98"}, {"measurement": "Respiratory Rate", "setting": "[1]; 6th Month, *p ≦ 0.05", "value": "16.16 ± 0.41"}, {"measurement": "effect on osteocalcin levels (in words)", "setting": "human osteocalcin", "value": "significant reduction"}, {"measurement": "Greene survey: sub-categories Anxiety, Depression, Vasomotor Symptoms and Sexual Aspects (in words)", "setting": "[2]", "value": "Changes were also observed"}, {"measurement": "effect on triglycerides levels (in words)", "setting": "[3]; FIG. 8", "value": "significant decrease"}, {"measurement": "effect on HDL levels (in words)", "setting": "[3]; FIG. 9, Tibolone: after 1, 3 and 6 months of treatment", "value": "significant reduction"}, {"measurement": "effect on LDL levels (in words)", "setting": "[3]; FIG. 10", "value": "significant reduction"}, {"measurement": "effect on LDL/HDL ratio (in words)", "setting": "[3]; FIG. 12, Tibolone: after six months, Warmi: after both 3 and 6 months", "value": "reduction"}, {"measurement": "reduction of total cholesterol", "setting": "[3]; after six months of treatment, FIG. 7", "value": 12.37, "unit": "%"}, {"measurement": "reduction in the level of glycemia", "setting": "[3]; at the end of the study, FIG. 6", "value": 7.39, "unit": "%"}, {"measurement": "effect on interferon gamma (INF-y) (in words)", "setting": "[4]; FIG. 16, none were significant", "value": "slight increases"}, {"measurement": "effect on Interleukin 6 (IL-6) levels (in words)", "setting": "[4]; FIG. 17, Tibolone: after 3 months alone, Warmi: after both treatment periods", "value": "significantly reduced"}, {"measurement": "reduction of FSH", "setting": "[5]; month six of treatment", "value": 16.20, "unit": "%"}, {"measurement": "reduction of FSH", "setting": "[5]; month three of treatment", "value": 29.58, "unit": "%"}, {"measurement": "drop of DHEAS in serum", "setting": "[5]; month three, FIG. 3", "value": 12.87, "unit": "%"}, {"measurement": "decrease of progesterone", "setting": "[5]; month three, FIG. 4", "value": 29.70, "unit": "%"}, {"measurement": "increase in the hematocrit", "setting": "[6]", "value": 3.53, "unit": "%"}, {"measurement": "increase of CRP (change in percentage)", "setting": "C-reactive protein", "value": 26.83, "unit": "%"}]}]}
